Columns and labels:
[1] = test system: BA/F3 (EGFR D770_N771 insSVD T790M) cells; experiment: Ba/F3 cell survival assay (Cell Titer-Glo), EGFR-insSVD T790M; assay type: cell-based; conditions: Ba/F3 EGFR-D770-N771ins_SVD; 48 h, without IL-3, with EGF
Experimental: 293T cells from ATCC were transfected with pBABEpuro expression constructs for WT EGFR or EGFR-insSVD, or EGFR-insSVD T790M, and pCL-Eco packaging vector using Fugene-6 transfection reagent from Promega. Plates were incubated at 37° C. for 48 h. Retrovirus was harvested by filtering the media supernatant through a 0.45 μm filter.
Ba/F3 cells purchased from DSMZ were grown in RPMI+10% FBS+10 ng/mL IL-3 and infected with filtered retroviral supernatant at a 1:2 dilution. Polybrene was added to a concentration of 8 μg/mL, plates were spun for 90 min, and incubated for 16 h at 37° C. 2 μg/mL puromycin was added to the infected cells 24 h after infection and cells were continually grown in the presence of puromycin and 10 ng/mL IL-3. Following stably expressing Ba/F3 cell lines were generated: Ba/F3-EGFR-WT, Ba/F3-EGFR-insSVD, Ba/F3-EGFR-insSVD T790M, (Ba/F3-vector-control).
For cell survival assays, Ba/F3 cells were grown to a density of 1-2 million cells per mL, spun down and resuspended in media without IL-3, and replated at a concentration of 200,000-500,000 cells per mL. The cells ectopically expressing WT EGFR, EGFR-insSVD, or EGFR-insSVD T790M were plated with 10 ng/mL Millipore Culture grade EGF. The cells ectopically expressing pBABEpuro empty vector were plated with 10 ng/mL IL-3.
2 days later, cells were plated in 50 μL in a 384 well plate at a concentration of 4000 cells per well for cells assayed in the absence of IL-3 and 2000 cells per well for cells assayed in the presence of IL-3. 100 nL of compound was added to each well using a 100 nL pin head, and plates were incubated at 37° C. for 48 h.
Cell viability was measured by adding 20 μL of Cell Titer-Glo Luminescent Cell Viability Reagent diluted 1:3 in PBS. Plates were sealed with Perkin Elmer Top-Seal, inverted several times to mix, and immediately centrifuged at 1000 rpm for 2 min. Plates were incubated in low light conditions for 8-10 min and luminescence was measured.

BA/F3 (insSVD) cells = experiment: Ba/F3 cell survival assay (Cell Titer-Glo), EGFR-insSVD; assay type: cell-based; conditions: Mus musculus, BaF3, 48 h, without IL-3, with EGF
Summary of the method: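 Viability read by CellTiter-Glo luminescence after 48 h compound exposure at 37° C, 4000 cells/well. Retrovirally transduced, puromycin-selected Ba/F3 lines carrying EGFR-insSVD ± T790M grew IL-3-free with 10 ng/mL EGF for 2 days beforehand; compound delivered by 100 nL pin.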

[2] = molecular target: mutEGFR (D770_N771insNPG, T790); experiment: mutEGFR (D770_N771insNPG, T790) kinase assay; assay type: biochemical, human
[3] = molecular target: mutEGFR (D770_N771insSVD) (Homo sapiens, UniProt P00533, INS767SVD); experiment: Exon20-mutant-EGFR (D770_N771insSVD) TR-FRET kinase assay; assay type: biochemical; conditions: 2 mM ATP, 15 min preincubation
Summary of the method: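 GST-fused human EGFR fragment R669-A1210 carrying the SVD insertion, Sf9-expressed, typically 15 pg/μl, was preincubated with compound for 15 min at 22° C in pH 7.0 Hepes/MgCl2 buffer. Phosphorylation was read by HTRF (665/620 nm ratio), normalised to no-inhibitor and no-enzyme controls.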

mutEGFR (D770_N771insNPG, T790), sequence (P00533 with tags, fused parts or gaps INS770NPG limits assumed): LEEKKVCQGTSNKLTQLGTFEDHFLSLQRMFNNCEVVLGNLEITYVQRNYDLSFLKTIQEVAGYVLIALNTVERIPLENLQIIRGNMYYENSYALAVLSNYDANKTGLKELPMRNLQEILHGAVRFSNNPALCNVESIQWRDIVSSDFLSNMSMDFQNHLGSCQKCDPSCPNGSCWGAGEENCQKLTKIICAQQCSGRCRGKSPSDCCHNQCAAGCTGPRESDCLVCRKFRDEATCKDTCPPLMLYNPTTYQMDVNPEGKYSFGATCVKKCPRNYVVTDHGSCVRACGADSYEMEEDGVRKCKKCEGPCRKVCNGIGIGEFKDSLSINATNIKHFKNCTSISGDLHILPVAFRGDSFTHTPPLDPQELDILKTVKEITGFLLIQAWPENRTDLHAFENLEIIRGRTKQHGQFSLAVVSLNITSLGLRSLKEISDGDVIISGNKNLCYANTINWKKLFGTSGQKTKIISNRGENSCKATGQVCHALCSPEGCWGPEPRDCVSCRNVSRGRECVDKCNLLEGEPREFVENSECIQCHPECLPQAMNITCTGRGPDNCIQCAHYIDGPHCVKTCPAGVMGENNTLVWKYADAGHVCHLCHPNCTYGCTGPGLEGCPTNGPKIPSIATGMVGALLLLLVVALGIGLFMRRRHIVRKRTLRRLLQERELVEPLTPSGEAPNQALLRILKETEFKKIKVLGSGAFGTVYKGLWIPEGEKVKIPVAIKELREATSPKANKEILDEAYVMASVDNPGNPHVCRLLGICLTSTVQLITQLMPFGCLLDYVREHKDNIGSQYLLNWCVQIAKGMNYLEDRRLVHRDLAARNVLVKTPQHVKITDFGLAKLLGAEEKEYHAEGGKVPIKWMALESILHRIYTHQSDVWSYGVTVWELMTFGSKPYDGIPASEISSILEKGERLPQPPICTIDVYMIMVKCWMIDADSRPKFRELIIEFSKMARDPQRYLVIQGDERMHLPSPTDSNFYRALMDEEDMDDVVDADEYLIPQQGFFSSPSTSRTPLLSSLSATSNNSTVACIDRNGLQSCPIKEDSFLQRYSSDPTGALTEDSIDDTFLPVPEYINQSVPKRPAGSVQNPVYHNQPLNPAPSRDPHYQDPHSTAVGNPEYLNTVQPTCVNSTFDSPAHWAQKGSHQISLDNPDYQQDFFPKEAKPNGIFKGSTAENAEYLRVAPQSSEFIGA
mutEGFR (D770_N771insSVD), sequence (P00533 with tags, fused parts or gaps INS767SVD limits assumed): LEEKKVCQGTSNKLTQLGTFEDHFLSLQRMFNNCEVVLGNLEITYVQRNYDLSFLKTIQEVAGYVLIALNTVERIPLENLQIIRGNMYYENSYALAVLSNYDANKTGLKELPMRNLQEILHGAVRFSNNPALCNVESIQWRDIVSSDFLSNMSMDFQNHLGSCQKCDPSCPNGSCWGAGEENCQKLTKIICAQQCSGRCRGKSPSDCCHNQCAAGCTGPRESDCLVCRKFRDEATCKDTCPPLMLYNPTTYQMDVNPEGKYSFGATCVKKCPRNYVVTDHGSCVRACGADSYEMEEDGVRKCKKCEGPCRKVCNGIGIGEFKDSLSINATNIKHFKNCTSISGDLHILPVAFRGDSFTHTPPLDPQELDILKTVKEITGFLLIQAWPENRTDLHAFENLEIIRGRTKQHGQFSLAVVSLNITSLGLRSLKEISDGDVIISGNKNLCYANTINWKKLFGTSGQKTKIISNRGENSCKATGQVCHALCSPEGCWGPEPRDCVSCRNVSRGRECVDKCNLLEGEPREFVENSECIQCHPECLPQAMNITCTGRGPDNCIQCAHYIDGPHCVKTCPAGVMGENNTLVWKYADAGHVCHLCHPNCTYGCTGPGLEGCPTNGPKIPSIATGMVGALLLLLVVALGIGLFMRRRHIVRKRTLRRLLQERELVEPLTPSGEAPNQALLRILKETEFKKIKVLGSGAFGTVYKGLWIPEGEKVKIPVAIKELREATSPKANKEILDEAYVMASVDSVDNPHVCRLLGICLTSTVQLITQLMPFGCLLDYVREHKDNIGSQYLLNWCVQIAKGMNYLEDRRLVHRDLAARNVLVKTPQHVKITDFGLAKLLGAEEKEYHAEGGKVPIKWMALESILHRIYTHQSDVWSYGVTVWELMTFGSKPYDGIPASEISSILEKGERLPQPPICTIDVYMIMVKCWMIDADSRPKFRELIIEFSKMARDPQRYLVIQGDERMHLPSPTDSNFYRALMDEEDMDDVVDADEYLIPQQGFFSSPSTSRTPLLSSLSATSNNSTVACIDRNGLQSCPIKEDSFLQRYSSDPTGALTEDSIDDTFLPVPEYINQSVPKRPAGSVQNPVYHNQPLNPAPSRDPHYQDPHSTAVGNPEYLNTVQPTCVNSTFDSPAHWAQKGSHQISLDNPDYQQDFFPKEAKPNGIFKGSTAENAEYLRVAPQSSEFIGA

C=CC(=O)N(C)CCOc1cnccc1-c1[nH]c2cccnc2c1-c1cccc(F)c1OC [Example 19, N-[2-({4-[3-(3-fluoro-2-methoxyphenyl)-1H-pyrrolo[3,2-b]pyridin-2-yl]pyridin-3-yl}oxy)ethyl]-N-methylprop-2-enamide]
IC50 [1]: 9.98 µM
IC50 (BA/F3 (insSVD) cells): 6100 nM
IC50 [2]: 797 nM
IC50 [3]: 178 nM

C=CC(=O)NCCOc1cnccc1-c1[nH]c2cc(F)cnc2c1-c1ccccc1 [Example 6, N-(2-{[4-(6-fluoro-3-phenyl-1H-pyrrolo[3,2-b]pyridin-2-yl)pyridin-3-yl]oxy}ethyl)prop-2-enamide]
IC50 [1]: 9.98 µM
IC50 (BA/F3 (insSVD) cells): 7080 nM
IC50 [2]: 5510 nM
IC50 [3]: 3850 nM

C=CC(=O)N(C)CCOc1cnccc1-c1[nH]c2cccnc2c1-c1ccccc1 [Example 4, N-methyl-N-(2-{[4-(3-phenyl-1H-pyrrolo[3,2-b]pyridin-2-yl)pyridin-3-yl]oxy}ethyl)prop-2-enamide]
IC50 [1]: 9.98 µM
IC50 (BA/F3 (insSVD) cells): 346 nM
IC50 [2]: 17.1 nM
IC50 [3]: 7.58 nM

C=CC(=O)N(C)CCOc1cnccc1-c1[nH]c2cccnc2c1-c1ccc(Cl)c(C)c1 [Example 10, N-[2-({4-[3-(4-chloro-3-methylphenyl)-1H-pyrrolo[3,2-b]pyridin-2-yl]pyridin-3-yl}oxy)ethyl]-N-methylprop-2-enamide]
IC50 [1]: 9.98 µM
IC50 (BA/F3 (insSVD) cells): 2930 nM
IC50 [2]: 90.6 nM
IC50 [3]: 73.1 nM

C=CC(=O)N1CCC[C@H]1COc1cnccc1-c1[nH]c2cccnc2c1-c1ccccc1 [Example 34, 1-[(2S)-2-({[4-(3-phenyl-1H-pyrrolo[3,2-b]pyridin-2-yl)pyridin-3-yl]oxy}methyl)pyrrolidin-1-yl]prop-2-en-1-one]
IC50 [1]: 0.75 µM
IC50 (BA/F3 (insSVD) cells): 16.9 nM
IC50 [2]: 2.06 nM
IC50 [3]: 0.367 nM

C=CS(=O)(=O)N1CCC[C@H]1COc1cnccc1-c1[nH]c2cccnc2c1-c1ccccc1 [Example 36, 2-(3-{[(2S)-1-(ethenesulfonyl)pyrrolidin-2-yl]methoxy}pyridin-4-yl)-3-phenyl-1H-pyrrolo[3,2-b]pyridine]
IC50 [1]: 0.0446 µM
IC50 (BA/F3 (insSVD) cells): 3.27 nM
IC50 [2]: 0.308 nM
IC50 [3]: 0.104 nM

C=CC(=O)N(C)CCOc1cnccc1-c1[nH]c2cccnc2c1-c1cccc(Cl)c1 [Example 22, N-[2-({4-[3-(3-chlorophenyl)-1H-pyrrolo[3,2-b]pyridin-2-yl]pyridin-3-yl}oxy)ethyl]-N-methylprop-2-enamide]
IC50 [1]: 7.64 µM
IC50 (BA/F3 (insSVD) cells): 262 nM
IC50 [2]: 12.2 nM
IC50 [3]: 6.8 nM

C=CS(=O)(=O)N1CCC[C@H]1COc1cnccc1-c1[nH]c2cccnc2c1-c1cccc(C(F)(F)F)c1 [Example 38, 2-(3-{[(2S)-1-(ethenesulfonyl)pyrrolidin-2-yl]methoxy}pyridin-4-yl)-3-[3-(trifluoromethyl)phenyl]-1H-pyrrolo[3,2-b]pyridine]
IC50 [1]: 0.147 µM
IC50 (BA/F3 (insSVD) cells): 20.1 nM
IC50 [2]: 1.05 nM
IC50 [3]: 0.404 nM

C=CC(=O)N(C)CCOc1cnccc1-c1[nH]c2cccnc2c1-c1ccc(F)c(C)c1 [Example 12, N-[2-({4-[3-(4-fluoro-3-methylphenyl)-1H-pyrrolo[3,2-b]pyridin-2-yl]pyridin-3-yl}oxy)ethyl]-N-methylprop-2-enamide]
IC50 [1]: 9.1 µM
IC50 (BA/F3 (insSVD) cells): 538 nM
IC50 [2]: 14.2 nM
IC50 [3]: 8.68 nM

C=CC(=O)N(C)CCOc1cnccc1-c1[nH]c2cccnc2c1-c1ccc(F)c(Cl)c1 [Example 24, N-[2-({4-[3-(3-chloro-4-fluorophenyl)-1H-pyrrolo[3,2-b]pyridin-2-yl]pyridin-3-yl}oxy)ethyl]-N-methylprop-2-enamide]
IC50 [1]: 8.32 µM
IC50 (BA/F3 (insSVD) cells): 726 nM
IC50 [2]: 20.9 nM
IC50 [3]: 11.9 nM

C=CC(=O)N1CCC[C@H]1COc1cnccc1-c1[nH]c2cccnc2c1-c1ccc2ccccc2c1 [Example 80, 1-{(2S)-2-[({4-[3-(naphthalen-2-yl)-1H-pyrrolo[3,2-b]pyridin-2-yl]pyridin-3-yl}oxy)methyl]pyrrolidin-1-yl}prop-2-en-1-one]
IC50 (BA/F3 (insSVD) cells): 162 nM
IC50 [2]: 1.86 nM
IC50 [3]: 0.583 nM

C=CS(=O)(=O)N(C)CCOc1cnccc1-c1[nH]c2cccnc2c1-c1cc(Cl)cc(Cl)c1 [Example 75, N-[2-({4-[3-(3,5-dichlorophenyl)-1H-pyrrolo[3,2-b]pyridin-2-yl]pyridin-3-yl}oxy)ethyl]-N-methylethenesulfonamide]
IC50 (BA/F3 (insSVD) cells): 2020 nM
IC50 [2]: 26.1 nM
IC50 [3]: 45 nM

C=CS(=O)(=O)N(C)CCOc1cnccc1-c1[nH]c2cccnc2c1-c1cccc(OC(F)(F)F)c1 [Example 74, N-methyl-N-{2-[(4-{3-[3-(trifluoromethoxy)phenyl]-1H-pyrrolo[3,2-b]pyridin-2-yl}pyridin-3-yl)oxy]ethyl}ethenesulfonamide]
IC50 (BA/F3 (insSVD) cells): 964 nM
IC50 [2]: 58.8 nM
IC50 [3]: 11.2 nM

C#CC(=O)N1CCC(Oc2cnccc2-c2[nH]c3cccnc3c2-c2cc(C)ccc2F)C1 (racemic) [Example 125, 1-[(3RS)-3-({4-[3-(2-fluoro-5-methylphenyl)-1H-pyrrolo[3,2-b]pyridin-2-yl]pyridin-3-yl}oxy)pyrrolidin-1-yl]prop-2-yn-1-one]
IC50 (BA/F3 (insSVD) cells): 1030 nM
IC50 [2]: 219 nM
IC50 [3]: 80.8 nM

C=CC(=O)N(C)CCOc1cnccc1-c1[nH]c2cccnc2c1-c1ccc2cc[nH]c2c1 [Example 16, N-[2-({4-[3-(1H-indol-6-yl)-1H-pyrrolo[3,2-b]pyridin-2-yl]pyridin-3-yl}oxy)ethyl]-N-methylprop-2-enamide]
IC50 (BA/F3 (insSVD) cells): 584 nM
IC50 [2]: 32.3 nM
IC50 [3]: 7.65 nM

C=CC(=O)N1CCC[C@H]1COc1cnccc1-c1[nH]c2cccnc2c1-c1cc(C#N)ccc1F [Example 90, 4-fluoro-3-[2-(3-{[(2S)-1-(prop-2-enoyl)pyrrolidin-2-yl]methoxy}pyridin-4-yl)-1H-pyrrolo[3,2-b]pyridin-3-yl]benzonitrile]
IC50 (BA/F3 (insSVD) cells): 999 nM
IC50 [2]: 62.5 nM
IC50 [3]: 34.3 nM

C=CC(=O)N1CCC1(C)COc1cnccc1-c1[nH]c2cccnc2c1-c1ccccc1 (racemic) [Example 145, 1-[(2RS)-2-methyl-2-({[4-(3-phenyl-1H-pyrrolo[3,2-b]pyridin-2-yl)pyridin-3-yl]oxy}methyl)azetidin-1-yl]prop-2-en-1-one]
IC50 (BA/F3 (insSVD) cells): 9980 nM
IC50 [2]: 17400 nM
IC50 [3]: 3510 nM

CN(C)C/C=C/C(=O)N1CCC[C@H]1COc1cnccc1-c1[nH]c2cccnc2c1-c1cccc(C(F)(F)F)c1 [Example 96, (2E)-4-(dimethylamino)-1-[(2S)-2-{[(4-{3-[3-(trifluoromethyl)phenyl]-1H-pyrrolo[3,2-b]pyridin-2-yl}pyridin-3-yl)oxy]methyl}pyrrolidin-1-yl]but-2-en-1-one]
IC50 (BA/F3 (insSVD) cells): 373 nM
IC50 [2]: 22.1 nM
IC50 [3]: 3.45 nM

C=CC(=O)N(C)CCOc1cnccc1-c1[nH]c2cccnc2c1-c1cccc(CC)c1 [Example 45, N-[2-({4-[3-(3-ethylphenyl)-1H-pyrrolo[3,2-b]pyridin-2-yl]pyridin-3-yl}oxy)ethyl]-N-methylprop-2-enamide]
IC50 (BA/F3 (insSVD) cells): 1280 nM
IC50 [2]: 76.3 nM
IC50 [3]: 24.6 nM

C=CC(=O)N(C)CCOc1cnccc1-c1[nH]c2cccnc2c1-c1ccc2ccsc2c1 [Example 44, N-[2-({4-[3-(1-benzothiophen-6-yl)-1H-pyrrolo[3,2-b]pyridin-2-yl]pyridin-3-yl}oxy)ethyl]-N-methylprop-2-enamide]
IC50 (BA/F3 (insSVD) cells): 999 nM
IC50 [2]: 64 nM
IC50 [3]: 21.1 nM

Source: patent US20260035365A1, “1H-PYRROLO[3,2-B]PYRIDINE DERIVATIVES AS IRREVERSIBLE INHIBITORS OF MUTANT EGFR FOR THE TREATMENT OF CANCER” (Bayer Aktiengesellschaft, priority 2022, published 2026)
